Data reported in patent US12383535B2, “Hydrogen peroxide-responsive KEAP1-NRF2 ppi inhibitor prodrug, and preparation method therefor” (CHINA PHARMACEUTICAL UNIVERSITY, priority 2019, dated 2025).

Experiments:
[1] = Drug release rate by HPLC (H2O2 activation of prodrug); format: physicochemical
Protocol: The target compound was dissolved in DMSO to give a 10 mM stock solution, which was then stored at −20° C. The final concentration was brought to 50 μM by adding the target compound (10 mM) to phosphate buffered saline (PBS) (10 mM, pH 7.4), and H2O2 was added. The solution was well vortexed, and then incubated at 37° C. Samples were taken at appropriate time intervals and analyzed by HPLC directly after injection, and the peak areas were recorded to calculate the percentage of the compound. The procedure was repeated three times. The following Agilent 1260 HPLC and DAD detectors were used: Agilent C18 column (4.6×150 mm, 3.5 μm); mobile phase: 70% methanol; flow rate: 0.5 mL/min. A standard curve of the compound was plotted against concentration.
After treatment with 10 mM H2O2, the prodrug pro2 was activated with prolonged incubation time and the active parent compound 2 was completely released within 3 h (HPLC-determined conversion >98%, (B) of FIG. 1 and (C) of FIG. 1).

[2] = pKa and log D by Avdeef-Bucher potentiometric titration; format: physicochemical
Protocol: (§1) Through Avdeef-Bucher potentiometric titration, pKa and partition coefficients (log D, pH 7.4) were determined on a Gemini Profiler instrument (pION) according to the method of Avdeef and Tsinman. pH measurements were used to determine the intrinsic solubility.

[3] = Aqueous solubility (pSOL); format: physicochemical
Protocol: as §1
Potential solubility data were obtained with a pSOL model 3 instrument (pION INC, Cambridge, Massachusetts, USA). Cell membrane permeability was determined on a PAMPA Explorer instrument (pION).

[4] = pH stability in PBS buffers; format: physicochemical; conditions: PBS solutions, pH 4-10
Protocol: (1) pH stability. PBS buffers with different pH values (pH 4-10) were prepared from a 0.1 M HCl solution and a 0.1 M NaOH solution. The prodrug pro2 (20 μM) was incubated in triplicate together with the PBS buffers of different pH at 37° C. After 24 h of incubation, the solutions were filtered and injected for direct sample analysis by HPLC, and the peak areas were recorded to calculate the percentage of compound.

Stability in plasma = format: in vitro ADME
Protocol: (2) Stability in plasma. Samples (20 μM) of the prodrug pro2 were co-incubated in triplicate with mouse plasma at 37° C. at different time periods. Methanol was added to precipitate the proteins, and the samples were vortexed and then centrifuged at 12,000 rpm for 5 min. The supernatants were analyzed by HPLC and the peak areas were recorded.

[5] = Stability in liver microsomes (rat); format: in vitro ADME
Protocol: (3) Stability in microsomes. Isolated liver microsomes (from CD-1 male rats and human males) were used to evaluate the stability of the compound in microsomes in vitro. Ketanserin was used as a reference compound. A liver microsome solution (20 mg/mL) was added to a microcentrifuge tube containing PBS at 37° C. and the mixture was shaken for 10 min prior to assay. Then a DMSO solution (0.5 mM) containing the test compound was added. At 0 min, pre-cooled acetonitrile was added followed by an NADPH stock solution (6 mM). The plates were pre-incubated at 37° C. for 5 min. The timer started upon the addition of the NADPH stock solution (6 mM) to the plates. At 5 min, 15 min, 30 min and 45 min, pre-cooled acetonitrile was added to the wells of the respective plates to stop the reactions. After the reaction was quenched, the plates were shaken on a shaker for 10 min and then centrifuged at 5000 rpm for 15 min. The supernatant from each well was transferred to a 96-well sample plate containing ultrapure water for LC-MS/MS analysis.

[6] = system: Nrf2-ARE in RAW264.7 cells; experiment: ARE inductivity under LPS stimulation; format: cell-based, mouse
[7] = system: IL-1β and IL-6 mRNA in RAW264.7 cells; experiment: Real-time quantitative PCR of IL-1β and IL-6; format: cell-based, mouse; conditions: 20 ng/mL LPS 8 h
RAW264.7 cells = experiment: IL-1β, IL-6, TNF-α and NO assays in cell culture supernatant; format: cell-based, mouse
Protocol: IL-1β (IL-1β (m) ELISA kit, EK0394, Boster), IL-18 (IL-18 (m) ELISA kit, EMC011, NeoBioscience), IL-6 (IL-6 (m) ELISA kit EK0411, Boster), TNF-α (TNF-α (m) ELISA kit, EK0527, Boster) and NO (nitrate/nitrite assay kit, S0023, Beyotime, China) were tested using commercially available kits according to the manufacturer's instructions.
Then, several inflammatory mediators closely related to ROS, including IL-1β, IL-6, TNF-α and NO, were further evaluated.

C57BL/6 mice = experiment: LPS-induced mouse acute inflammation model; format: in vivo; conditions: LPS 300 μg/kg mice
Protocol: Female C57BL/6 mice (6-8 weeks old, 18-20 g in weight) were acclimatized with drinking water for 2 days, and were randomized to eight groups: (A) control group (n=3); (B) LPS (Sigma-Aldrich, St. Louis, No. L4130) model group (300 μg/kg/day, n=8); (C) LPS (300 μg/kg/day)+pro2 low-dose (10 mg/kg/day) group (n=8); (D) LPS (300 μg/kg/day)+pro2 high-dose (40 mg/kg/day) group (n=8); (E) LPS (300 μg/kg/day)+active parent compound 2 high-dose (40 mg/kg/day) group (n=8); (F) LPS (300 μg/kg/day)+dexamethasone low-dose (10 mg/kg/day) group (n=8); (G) pro2 high-dose (40 mg/kg/day) group (n=3); and (H) active parent compound 2 high-dose (40 mg/kg/day) group (n=3). Animals of groups A, G and H were given IP injections of 500 μL of normal saline each time (on days −3, −2 and −1). All LPS-stimulated mice were IP-injected with 500 μL of LPS (on days −3, −2 and −1), and 4 h after the injection the mice were given corresponding compound treatment (on days −3, −2 and −1). Animals were sacrificed (day 0) 24 h after the last dose of the compound to collect the serum, and the levels of cytokine IL-1β, IL-6, TNF-α and IFN-γ in the serum were determined by ELISA.

time to complete release of the active parent compound 2 ([1]; 10 mM H2O2): ≤ 3 h
HPLC-determined conversion ([1]; 10 mM H2O2, within 3 h): > 98%
release of the active parent compound 2 ([1]; H2O2 0.8 mM, 24 h incubation, HPLC): no less than 50%
pKa [2]: 4.53
LogD at pH 7.4 ([2]; pH 7.4): 2.34
Aqueous solubility at pH 7.4 [3]: 879.6 μg/mL
hydrolytic stability in PBS [4]: hydrolytically stable
stability in rat plasma (Stability in plasma): very stable
stability in co-incubation with rat liver microsomes [5]: very stable
EC50 ([6]; Mus musculus, RAW264.7, under LPS stimulation, read-out: EC50 of ARE inductivity): 320 nM
EC50 (RAW264.7 cells; Mus musculus, LPS-stimulated RAW264.7 cells, read-out: EC50 for reduction of extracellular NO concentration): 120 nM
Compound: COc1ccc(S(=O)(=O)Nc2ccc(N(CC(=O)N3CCSC3=O)S(=O)(=O)c3ccc(OC)cc3)c3ccccc23)cc1 [pro2]
inductivity of Nrf2-ARE at different concentrations of LPS ([6]; RAW264.7 cells stimulated with LPS prior to administration, compound 200 nM): LPS concentration-dependent increase
mRNA transcription of IL-1β and IL-6 [7]: significantly inhibit the induction by pro-inflammatory genes
production of IL-1β, IL-6 and TNF-α in supernatant (RAW264.7 cells; LPS-treated RAW264.7 cell culture): significant advantages in inhibiting production
anti-inflammatory effect (serum IL-1β, IL-6, TNF-α, IFN-γ) (C57BL/6 mice; compound 10 mg/kg): comparable therapeutic effect to dexamethasone
anti-inflammatory effect (serum IL-1β, IL-6, TNF-α, IFN-γ) (C57BL/6 mice; compound high dose 40 mg/kg, oral): stronger effect
